Assay results reported in patent US20040167170A1, “Methods of preventing breast cancer” (priority 1996, published 2004).

What was measured:
Assay type in all cases: in vivo, human
postmenopausal women = test: Integrated safety analysis of Phase III clinical trials of raloxifene for prevention or treatment of osteoporosis; conditions: all doses integrated; more than 12,850 patient-years of exposure; nearly 3 years of clinical experience
Excerpt: Because the goal of disease prevention is to protect women from the carcinogenic event (or the occurrence of precancerous lesions) and the subsequent promotion or progression to invasive disease (cancer), prolonged use of a preventive therapeutic agent is necessary (Kelloff et.al. Approaches to the Development and Marketing Approval of Drugs that Prevent Cancer, Cancer Epidemiology, Biomarkers & Prevention, vol 4, pp.1-10, 1995). […] Raloxifene has been studied in more than 12,000 subjects. Extensive integrated data from Phase III clinical trials of raloxifene for the prevention or treatment of osteoporosis in postmenopausal women, has been analyzed for safety. When all doses of raloxifene are integrated, this analysis has included more than 12,850 patient-years of exposure to raloxifene.

[1] = test system: breast cancer in postmenopausal women; test: Phase III double-blind placebo-controlled raloxifene trials, all placebo-controlled studies combined: incidence of breast cancer; conditions: for Relative Risk (Raloxifene to Placebo) of breast cancer / Raloxifene Cases n/N (%): all raloxifene doses pooled; for Raloxifene Cases n/N (%): N estimated
Excerpt: (§1) As support for the utility of the current invention, the interim safety results of Phase III clinical trials with raloxifene are presented, below.
(§2) The majority of cases of breast carcinoma have occurred in the large, ongoing osteoporosis treatment study of 7704 postmenopausal women with established osteoporosis. However additional cases have been reported in smaller studies of postmenopausal women at risk for osteoporosis. The studies reported herein are double-blind and placebo-controlled; most have durations of approximately three years and were designed to determine the efficacy of raloxifene to prevent or treat osteoporosis in postmenopausal women. In addition, the studies provide information on the status of cardiovascular health and other major medical conditions (including the incidence of breast carcinoma). Patients were randomly assigned to receive either placebo, 30 mg, 60 mg, 120 mg or 150 mg of drug per day, orally. All patients and investigators are blinded to study drug assignment (double-blind design). All patients in all groups received daily calcium supplements of approximately 500 mg/day. In addition, patients in the large, 7704-patient treatment study received Vitamin D supplements, 400-600 IU/day.
(§3) Subjects selected for these studies are postmenopausal women (at least 2 years from the time of the last menstrual period), ages range from approximately forty-five to eighty years.
(§4) Typical exclusion criteria from participation in these studies included: l)the presence of serious systemic disease, 2)acute or chronic liver disease, 3)substantially impaired kidney function, 4)subjects who, in the opinion of the investigator, have poor medical or psychiatric risk factors for inclusion in a clinical trial, e.g., drug or alcohol abuse, etc. 5)subjects with any history of cancer within five years of entry into the study, with the exception of superficial lesions, e.g., basal cell carcinoma of the skin 6)the presence of abnormal uterine bleeding. Most important of the exclusion criteria was the exclusion of women with present or past personal history of breast cancer or other estrogen-dependent neoplasia. These exclusion criteria generate a population of subjects which reflects the general population in regard to the risk of developing breast carcinoma, or in other words, those persons at no particular increased risk of developing breast cancer.
(§5) Potential subjects were screened prior to enrollment into the study. Subjects were required to reveal their medical histories and current medical conditions. All potential patients were required either to have a baseline mammogram or ultrasound evaluation of the breast, or to have had one of these procedures in the 12-month period preceding study entry. In most studies, a two-year follow-up mammogram is required; however, annual mammograms are recommended. All subjects with diagnosed and reported carcinomas of the breast were required to discontinue immediately from study participation, and were referred by the site investigator for appropriate oncologic evaluation and care.
The overall ratio of treatment assignments for randomized patients (raloxifene to placebo) is approximately 2:1.
(§6) The results shown in Tables 1-4 are for subjects with histopathologic diagnoses of carcinoma of the breast. The data include results from optional one year mammograms, as well as the required baseline and two year follow-up mammograms. Once a diagnosis of breast cancer was made, these subjects were discontinued from the study and their status decoded to reveal the therapy (arm) to which they been assigned (i.e. what study drug they had received).
(§7) For the studies reported in this invention, the number of patients randomly assigned to receive placebo is approximately 3195. The number of patients randomly assigned to receive raloxifene (all doses combined) is approximately 6681. […] Table 1 presents the results for all placebo-controlled studies, with data for all doses of raloxifene pooled. […]

[2] = test system: breast cancer in postmenopausal women with established osteoporosis; test: Large (7704-patient) osteoporosis treatment study of postmenopausal women with established osteoporosis: incidence of breast cancer; conditions: for Relative Risk (Raloxifene to Placebo) of breast cancer / Raloxifene Cases n/N (%): 60 and 120 mg/day; for Raloxifene Cases n/N (%): N estimated
Excerpt: as §1, §2, §3, §4, §5, §6, §7

[3] = 1-Year Follow-up mammograms (6-18 months)
[4] = 2-year Follow-up mammograms (18-30 months)
[5] = Baseline mammograms (1-6 months)
[6] = diagnosis at least 1 month after therapy assignment
[7] = diagnosis at least 12 months after therapy assignment
[8] = vs placebo, cases at least 12 months after randomization
[9] = vs placebo, diagnosed at least one month after random assignment

`O=C(c1ccc(OCCN2CCCCC2)cc1)c1c(-c2ccc(O)cc2)sc2cc(O)ccc12` [Raloxifene] was tested, and the tolerability / safety (postmenopausal women) was “extremely well-tolerated”, the “Raloxifene Cases” value [1, 3] was 7 and the “Relative Risk of breast cancer” value [1, 3] was 0.56. For the same molecule, the “Raloxifene Cases” value [1, 4] was 5, the “Relative Risk of breast cancer” value [1, 4] was 0.15 and the “Raloxifene Cases” value [1, 5] was 5. The “Relative Risk of breast cancer” value [1, 5] was 1.20, the “Relative Risk (Raloxifene to Placebo) of breast cancer” value (“Relative Risk (Raloxifene to Placebo)” below) [1, 6] was 0.36 and the “Raloxifene Cases n/N (%)” value [1, 6] was 18/6681. The “Relative Risk (Raloxifene to Placebo)” value [1, 7] was 0.23, the “Raloxifene Cases n/N (%)” value [1, 7] was 10/6681 and the “breast cancer cases reported in the raloxifene treatment groups” value ([1]; placebo-controlled trials of at least 6 months duration, more than 1-month of treatment, raloxifene to placebo approximately 2:1) was 18 cases. For the same molecule, the “decrease in the incidence of breast cancer” value [1, 8] was 77%, the “decrease in the rate of breast cancer” value [1, 9] was 64% and the “Raloxifene Cases” value [2, 3] was 4. The “Relative Risk of breast cancer” value [2, 3] was 0.33, the “Raloxifene Cases” value [2, 4] was 3 and the “Relative Risk of breast cancer” value [2, 4] was 0.12. For the same molecule, the “Raloxifene Cases” value [2, 5] was 5, the “Relative Risk of breast cancer” value [2, 5] was 1.25 and the “Relative Risk (Raloxifene to Placebo)” value [2, 6] was 0.29. The “Raloxifene Cases n/N (%)” value [2, 6] was 12/5317, the “Relative Risk (Raloxifene to Placebo)” value [2, 7] was 0.14 and the “Raloxifene Cases n/N (%)” value [2, 7] was 5/5317. The “decrease in the incidence of breast carcinoma” value [2, 8] was 86% and the “decrease in the rate of breast cancer” value [2, 9] was 71%.
